One assay has as its system OVCAR-3 cells. Kind of assay: Cell Growth Inhibition, OVCAR-3 (CellTiterGlo, 6 days). As to conditions: OVCAR-3, 6-day treatment, CellTiterGlo 2.0. It counts as cell-based. From the text:
(§1) MCF-7 and OVCAR-3 cells were used to evaluate the anti-proliferation activity of the CDK inhibitors. MCF-7 (ATCC, HTB-22) cells are epithelial cells from a patient with ER+ metastatic adenocarcinoma. OVCAR-3 (ATCC, HTB-161) cells were derived from malignant ascites of a patient with ovarian cancer and are known to have CCNE1 amplification. Both cell lines were maintained in RPMI media supplemented with 10% fetal bovine serum. For cell growth inhibition assay, CDK inhibitors in DMSO solution were dispensed with either Echo 655 (Beckman Coulter) or Tecan D300e (HP) into 384-well plates (Corning #3765) and the 384-well plates were UV-sterilized prior to the assay. The inhibitors were typically tested in the 10-10,000 nM concentration range with half-log serial dilutions. MCF-7 or OVCAR-3 (500 cells/30 μL/well) were added to each well using Multidrop Combi (ThermoFisher) using standard cassettes. The assay plates with cells were cultured at 37° C., 5% CO2 for 6 days. At the end of the 6-day treatment, 30 μL of CellTiterGlo 2.0 (Promega) was added to each well and the luminescent signal was read using CLARIOstar plus (BMG). The percentage of cell growth inhibition (% CGI) was calculated using the following formula % CGI=100−100×luminescencesample/luminescencecontrol. The half maximal inhibitory concentration (IC50) was determined by nonlinear curve fitting (four parameters, variable slope).
Background: In ATP-based viability assays light output follows the ATP content of the culture.

The next assay concerns MCF-7 cells. Briefly: Cell Growth Inhibition, MCF-7 (CellTiterGlo, 6 days). Conditions: MCF-7, 6-day treatment, CellTiterGlo 2.0. It is filed as cell-based.
From the text: as §1

For the next assay, the target named is CDK1/Cyclin B1 (Homo sapiens (Human), UniProt P06493). Briefly: CDK1/Cyclin B1 ADP-Glo Kinase Assay. It is filed as biochemical. Conditions: 80 uM ATP. How it is done:
CDK1/Cyclin B1 ADP-Glo Kinase Assay
(§2) The purpose of CDK1/Cyclin B1 assay is to evaluate the inhibition (% inhibition and IC50 values) of small molecule inhibitors by using a Luminescent based ADP-Glo assay. CDK1/Cyclin B1 catalyzes the production of ADP from ATP. ADP-Glo assay monitors ADP producing biochemical reactions. ADP-Glo is performed in 2 steps upon completion of kinase reaction: a combined termination of kinase reaction and depletion of remaining ATP in the first step, and conversion of generated ADP to ATP and the newly produced ATP to light output using luciferase/luciferin reaction in the second step. The luminescent signal generated is proportional to the ADP concentration produced and is correlated with the kinase activity. CDK1/Cyclin B1 was purchased from Carna (Cat 04-102). Typical reaction solutions (10 uL final reaction volume) contained 2% DMSO (f inhibitor), 10 mM MgCl2, 1 mM EGTA, 0.05% BSA, 2 mM DTT, 80 uM ATP (ATP Km=78.6 uM), 0.01% Brig-35, 0.75 uM substrate, and 4.917 nM CDK1/Cyclin Bl enzyme complex in 50 mM HEPES buffer at pH 7.5. The assay was initiated with the addition of ATP-containing substrate solution, following a 30-minute pre-incubation of enzyme and inhibitor at room temperature in the reaction mixture. The reaction was stopped after 90 minutes at room temperature by the addition of 10 uL of ADP-GLO Reagent. After a 90 minute incubation, 20 uL of Kinase Detection Reagent was added. Samples were incubated for 40 minutes, after which plate well luminescence was measured on a Envision microplate reader. The IC50 determinations were made from a plot of the fractional velocity as a function of inhibitor concentration fit to the 4 parameters IC50 equation.
In general terms: ADP-Glo first removes unused ATP, then detects ADP through luciferase.

In the next assay the target is CDK6/Cyclin D3 (Homo sapiens (Human), UniProt Q00534). Kind of assay: CDK6/Cyclin D3 ADP-Glo Kinase Assay. It is filed as biochemical. As to conditions: 100 uM ATP, read-out: CDK6/ CyclinD3 IC50. How it is done: CDK6/Cyclin D3 ADP-Glo Kinase Assay
Sequence of CDK6/Cyclin D3 (Q00534 whole entry): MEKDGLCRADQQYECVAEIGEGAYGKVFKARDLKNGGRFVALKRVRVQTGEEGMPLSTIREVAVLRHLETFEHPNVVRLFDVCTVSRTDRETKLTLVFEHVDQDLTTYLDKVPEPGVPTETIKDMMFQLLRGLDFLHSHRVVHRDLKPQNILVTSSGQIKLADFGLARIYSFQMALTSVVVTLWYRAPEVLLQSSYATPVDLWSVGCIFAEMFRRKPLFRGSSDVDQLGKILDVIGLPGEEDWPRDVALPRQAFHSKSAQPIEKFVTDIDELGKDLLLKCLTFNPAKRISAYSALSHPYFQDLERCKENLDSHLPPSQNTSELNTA
Sequence of CDK6/Cyclin D3 (P30281 whole entry partner): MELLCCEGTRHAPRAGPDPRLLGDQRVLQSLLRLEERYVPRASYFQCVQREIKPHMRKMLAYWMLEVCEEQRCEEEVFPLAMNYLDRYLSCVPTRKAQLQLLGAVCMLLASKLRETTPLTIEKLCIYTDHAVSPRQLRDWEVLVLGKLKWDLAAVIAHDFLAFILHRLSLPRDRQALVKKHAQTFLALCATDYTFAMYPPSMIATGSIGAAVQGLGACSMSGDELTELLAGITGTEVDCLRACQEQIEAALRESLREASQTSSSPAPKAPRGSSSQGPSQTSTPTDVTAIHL
as §2, with “of the CDK6/Cyclin D3” for “of CDK1/Cyclin B1”, “values) in the presence” for “values)”, “assay. CDK6/Cyclin D3” for “assay. CDK1/Cyclin B1”, “activity. CDK6/Cyclin D3” for “activity. CDK1/Cyclin B1”, “from Carna. […]” for “from Carna (Cat 04-102). Typical reaction solutions (10 uL final reaction volume) contained 2% DMSO (f inhibitor), 10 mM MgCl2, 1 mM EGTA, 0.05% BSA, 2 mM DTT, 80 uM ATP (ATP Km=78.6 uM), 0.01% Brig-35, 0.75 uM substrate, and 4.917 nM CDK1/Cyclin Bl enzyme complex in 50 mM HEPES buffer at pH 7.5.”, “a 90-minute” for “a 90 minute”

Assay [1] has as its target CDK2/Cyclin E1 full length (Homo sapiens (Human), UniProt P24941). Kind of assay: CDK2/Cyclin E1 Full Length ADP-Glo Kinase Assay. It is filed as biochemical. Conditions: 20 uM ATP, read-out: CDK2/ CyclinE1 IC50. How it is done:
CDK2/Cyclin E1 Full Length ADP-Glo Kinase Assay
The purpose of CDK2/Cyclin E1 assay is to evaluate the inhibition (% inhibition and IC50 values) of small molecule inhibitors by using a Luminescent based ADP-Glo assay. CDK2/Cyclin E1 full length catalyzes the production of ADP from ATP. ADP-Glo assay monitors ADP producing biochemical reactions. ADP-Glo is performed in 2 steps upon completion of kinase reaction: a combined termination of kinase reaction and depletion of remaining ATP in the first step, and conversion of generated ADP to ATP and the newly produced ATP to light output using luciferase/luciferin reaction in the second step. The luminescent signal generated is proportional to the ADP concentration produced and is correlated with the kinase activity. CDK2/Cyclin E1 was purchased from Eurofins (Cat 14-475M). Typical reaction solutions (10 uL final reaction volume) contained 2% DMSO (f inhibitor), 10 mM MgCI2, 1 mM EGTA, 0.05% BSA, 2 mM DTT, 20 uM ATP (ATP Km=64.78 uM), 0.01% Brig-35, 0.75 uM substrate, and 0.328 nM wild-type full length CDK2/Cyclin E1 enzyme complex in 50 mM HEPES buffer at pH 7.5. The assay was initiated with the addition of ATP-containing substrate solution, following a 30-minute pre-incubation of enzyme and inhibitor at room temperature in the reaction mixture. The reaction was stopped after 90 minutes at room temperature by the addition of 10 uL of ADP-GLO Reagent. After a 90 minute incubation, 20 uL of Kinase Detection Reagent was added. Samples were incubated for 40 minutes, after which plate well luminescence was measured on a Envision microplate reader. The IC50 determinations were made from a plot of the fractional velocity as a function of inhibitor concentration fit to the 4 parameters IC50 equation.

The target in the next assay is CDK4/Cyclin D1 (Homo sapiens (Human), UniProt P11802). Kind of assay: CDK4/Cyclin D1 CHEF Assay (AQT0258 peptide). It is filed as biochemical. Conditions: 200 uM ATP, read-out: CDK4/ CyclinD1 AQT IC50. From the text:
CDK4/Cyclin D1 CHEF Assay
The purpose of CDK4/Cyclin Dl assay is to evaluate the inhibition (% inhibition and IC50 values) of small molecule inhibitors by using a Chelation-Enhance Fluorescence (CHEF) assay. In a CHEF assay, phosphorylation of a peptide substrate results in proportional increase in fluorescence. CHEF kinase assay use peptide substrates containing a synthetic alpha-amino acid with a side chain bearing an 8-hydroxyquinoline derivative (sulfonamido-oxide, Sox). Upon phosphorylation of a nearby serine, threonine or tyrosine and in the presence of Mg(II), the spectral properties of the Sox residue are altered, emitting 485 nm wavelength light when excited with a 360 nm wavelength light source. CDK4/Cyclin D1 catalyzes the phosphoryl transfer to the SOX-labeled substrate peptide AQT0258 from Assayquant Technologies. Typical reaction solutions contained 2% DMSO (+/−inhibitor), 10 mM MgCl2, 1 mM DTT, 200 uM ATP (ATP Km=195.2 uM), 0.012% Brig-35, 10 uM AQT0258 peptide, 0.02% BSA, 1% Glycerol, 0.55 mM EGTA, 2.5 nM CDK4/Cyclin D1 in 54 mM HEPES buffer at pH 7.5. The reaction was initiated with the addition of substrate solution, following a 30-minute pre-incubation of enzyme and inhibitor at 22° C. in the reaction mix. Reactions were allowed to proceed for 3 hrs at 22° C., followed by fluorescence read of the reaction. The IC50 determinations were made from a plot of the fractional velocity as a function of inhibitor concentration fit to the 4 parameters IC50 equation.

Sequence of CDK4/Cyclin D1 (P11802 whole entry): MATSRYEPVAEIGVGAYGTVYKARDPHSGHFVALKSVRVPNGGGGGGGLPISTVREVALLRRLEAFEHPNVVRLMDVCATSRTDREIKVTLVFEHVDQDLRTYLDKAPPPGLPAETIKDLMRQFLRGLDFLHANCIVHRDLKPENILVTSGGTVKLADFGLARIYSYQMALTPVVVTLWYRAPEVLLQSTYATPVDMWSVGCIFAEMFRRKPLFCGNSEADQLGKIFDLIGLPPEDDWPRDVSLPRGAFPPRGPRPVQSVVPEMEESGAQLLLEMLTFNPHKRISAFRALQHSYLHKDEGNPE
Sequence of CDK4/Cyclin D1 (P24385 whole entry partner): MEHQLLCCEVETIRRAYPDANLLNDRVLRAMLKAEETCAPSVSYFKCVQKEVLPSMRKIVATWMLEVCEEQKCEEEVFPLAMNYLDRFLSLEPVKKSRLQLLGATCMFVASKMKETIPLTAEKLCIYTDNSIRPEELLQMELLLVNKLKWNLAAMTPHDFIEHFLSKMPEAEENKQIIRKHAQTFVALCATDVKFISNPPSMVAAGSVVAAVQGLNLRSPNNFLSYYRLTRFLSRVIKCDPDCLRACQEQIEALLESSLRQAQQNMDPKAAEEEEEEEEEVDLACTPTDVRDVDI
Sequence of CDK1/Cyclin B1 (P06493 whole entry): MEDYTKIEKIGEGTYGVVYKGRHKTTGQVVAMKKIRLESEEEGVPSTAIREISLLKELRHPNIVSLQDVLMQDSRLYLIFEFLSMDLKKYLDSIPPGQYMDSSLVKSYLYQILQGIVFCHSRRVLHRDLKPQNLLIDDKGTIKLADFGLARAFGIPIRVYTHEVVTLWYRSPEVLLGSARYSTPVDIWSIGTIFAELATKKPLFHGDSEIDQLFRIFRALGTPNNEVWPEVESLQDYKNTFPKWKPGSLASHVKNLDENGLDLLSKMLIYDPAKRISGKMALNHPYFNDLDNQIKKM
Sequence of CDK1/Cyclin B1 (P14635 whole entry partner): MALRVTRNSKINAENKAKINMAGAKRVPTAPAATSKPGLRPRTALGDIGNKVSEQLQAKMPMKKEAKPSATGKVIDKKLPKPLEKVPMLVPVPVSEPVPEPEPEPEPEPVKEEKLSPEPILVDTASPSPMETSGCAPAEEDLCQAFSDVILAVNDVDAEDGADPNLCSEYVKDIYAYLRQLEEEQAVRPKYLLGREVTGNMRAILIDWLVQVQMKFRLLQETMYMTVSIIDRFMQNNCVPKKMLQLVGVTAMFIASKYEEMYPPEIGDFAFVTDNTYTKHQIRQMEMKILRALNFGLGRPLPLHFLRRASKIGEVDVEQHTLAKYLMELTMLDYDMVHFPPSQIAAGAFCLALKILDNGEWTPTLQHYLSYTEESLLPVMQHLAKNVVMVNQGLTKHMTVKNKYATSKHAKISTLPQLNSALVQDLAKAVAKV

With `O=S(=O)(N1CCC(Nc2ncc3cccc(N4CC5(CNCCC5(F)F)C4)c3n2)CC1)C1(C(F)F)CC1` [Example 105, 8-(9,9-difluoro-2,6-diazaspiro[3.5]nonan-2-yl)-N-(1-((1-(difluoromethyl)cyclopropyl)sulfonyl)piperidin-4-yl)quinazolin-2-amine], the IC50 with OVCAR-3 cells (Homo sapiens, 144 h) was over 2000 nM; in the assay on MCF-7 cells (Homo sapiens, MCF7, 144 h), over 2000 nM; against CDK1/Cyclin B1 it was 200 to 500 nM; at CDK6/Cyclin D3, 200 to 500 nM; in assay [1], under 200 nM; at CDK4/Cyclin D1 it was under 200 nM.

On to `CN1CC2(CCN(c3cc(C(F)F)cc4cnc(NC5CCN(S(=O)(=O)C6(C)CC6)CC5)nc34)C2)C1` [Example 83, 6-(difluoromethyl)-8-(2-methyl-2,6-diazaspiro[3.4]octan-6-yl)-N-(1-((1-methylcyclopropyl)sulfonyl)piperidin-4-yl)quinazolin-2-amine], for which the IC50 with OVCAR-3 cells (Homo sapiens, 144 h) is 500 to 2000 nM; in the assay with MCF-7 cells (Homo sapiens, MCF7, 144 h) it was 500 to 2000 nM; against CDK1/Cyclin B1, 200 to 500 nM; at CDK6/Cyclin D3, under 200 nM; in assay [1], under 200 nM; at CDK4/Cyclin D1, under 200 nM.

For `O=S(=O)(c1ccc(C(F)(F)F)nc1)N1CCC(Nc2ncc3cc(C(F)F)cc(N4CC5(CCNC5)C4)c3n2)CC1` [Example 97, 6-(difluoromethyl)-8-(2,6-diazaspiro[3.4]octan-2-yl)-N-(1-((6-(trifluoromethyl)pyridin-3-yl)sulfonyl)piperidin-4-yl)quinazolin-2-amine], the IC50 in the assay with OVCAR-3 cells (Homo sapiens, 144 h) was under 200 nM; with MCF-7 cells (Homo sapiens, MCF7, 144 h), 200 to 500 nM; at CDK1/Cyclin B1, under 200 nM; at CDK6/Cyclin D3 it was under 200 nM; in assay [1] it was under 200 nM; at CDK4/Cyclin D1 it was under 200 nM.

With `CS(=O)(=O)N1CCC(Nc2ncc3cccc(N4CC(F)(F)C5(CNC5)C4)c3n2)CC1` [Example 109, 8-(8,8-difluoro-2,6-diazaspiro[3.4]octan-6-yl)-N-(1-(methylsulfonyl)piperidin-4-yl)quinazolin-2-amine], the IC50 with OVCAR-3 cells (Homo sapiens, 144 h) is 500 to 2000 nM; in the assay with MCF-7 cells (Homo sapiens, MCF7, 144 h), 500 to 2000 nM; on CDK1/Cyclin B1 it was under 200 nM; at CDK6/Cyclin D3, under 200 nM; in assay [1], under 200 nM; at CDK4/Cyclin D1, under 200 nM.

For the compound `CN1CC2(CCN(c3cc(C(F)F)cc4cnc(Nc5ccc6c(c5)CN(S(C)(=O)=O)C6)nc34)C2)C1` [Example 73, 6-(difluoromethyl)-8-(2-methyl-2,6-diazaspiro[3.4]octan-6-yl)-(methylsulfonyl)N-(2-isoindolin-5-yl)quinazolin-2amine], the IC50 in the assay on OVCAR-3 cells was 500 to 2000 nM; in the assay with MCF-7 cells, 200 to 500 nM; at CDK1/Cyclin B1, under 200 nM; on CDK6/Cyclin D3, under 200 nM; in assay [1], under 200 nM; at CDK4/Cyclin D1 it was under 200 nM.

Take `CS(=O)(=O)N1CCC(Nc2ncc3cc(C(F)F)cc(C4CC5(CCN(C6COC6)C5)C4)c3n2)CC1` (stereo not drawn) [Example 102, 6-(difluoromethyl)-N-(1-(methylsulfonyl)piperidin-4-yl)-8-(6-(oxetan-3-yl)-6-azaspiro[3.4]octan-2-yl)quinazolin-2-amine]: the IC50 in the assay with OVCAR-3 cells (Homo sapiens, 144 h) is 200 to 500 nM; in the assay on MCF-7 cells (Homo sapiens, MCF7, 144 h), 200 to 500 nM; against CDK1/Cyclin B1, under 200 nM; at CDK6/Cyclin D3, under 200 nM; in assay [1], under 200 nM; on CDK4/Cyclin D1, under 200 nM.

As for `O=S(=O)(CC1CC1)N1CCC(Nc2ncc3cc(C(F)F)cc(N4CC5(CCNC5)C4)c3n2)CC1` [Example 85, N-(1-((cyclopropylmethyl)sulfonyl)piperidin-4-yl)-6-(difluoromethyl)-8-(2,6-diazaspiro[3.4]octan-2-yl)quinazolin-2-amine], the IC50 with OVCAR-3 cells (Homo sapiens, 144 h) is 200 to 500 nM; with MCF-7 cells (Homo sapiens, MCF7, 144 h), 200 to 500 nM; against CDK1/Cyclin B1, under 200 nM; on CDK6/Cyclin D3, under 200 nM; in assay [1] it was under 200 nM; on CDK4/Cyclin D1, under 200 nM.
